The values below come from the NIST ThermoML archive (doi:10.1021/acs.jced.8b01128).

± gives the expanded uncertainty stated by the source.

Data set [1] is described as follows: refractive index (Na D-line) (dimensionless). To be noted: 298.15 K; 101.33 kPa; Liquid; Standard Abbe refractometry.
The conditions of data set [2]: 298.15 K; 101.33 kPa; Liquid; Pycnometric method.

Consider `OCCO` [1,2-ethanediol], for which the refractive index in data set [1] came out at 1.43159 ± 0.012.
In the case of `O` [water], the refractive index in data set [1] was 1.33299 ± 0.012.
As for `CC(O)CO` (centres undefined) [1,2-propanediol], the mass density in data set [2] was found to be 1032.7 ± 0.4 kg/m3. For the same compound, in data set [1], the refractive index is 1.43262 ± 0.012.
